Assay results: US20170360912A1, “CHITOSAN-BASED HYDROGEL AND APPLICATIONS THEREOF” (priority 2014, published 2017)

What was measured:
[1] = BGP pKa,2 at 25° C.; cited from earlier work
[2] = Measurement of pH and osmolality (Example 2); assay type: physicochemical; conditions: FIG. 8 panels A-C
Procedure: After 24 hours of gelation at 37° C., each hydrogel was pressed and filtered in order to recover entrapped solution. The pH of the extracted liquids was measured at room temperature using a pH meter (UltraBasic pH-meter, Denver Instrument). The impact of GA concentration of gels prepared with culture medium (as detailed in Section 2.2.4) on the final osmolality of hydrogels was measured using an osmometer (Advanced® Micro Osmometer, Model 3300, Advanced Instruments Inc.).

[3] = tested on: endothelial-derived cells (EA.hy 926); conditions: SHC 0.1M; cited from earlier work
[4] = Doxycycline denaturation on mixing, spectrometry; assay type: physicochemical
Source text: Addition of an anti-oxidant was however required for long term stability.

drug stability on direct addition in the CH or GA solution [4]	drug stability on addition in the CH-GA solution ([4]; room temperature)	Structure (SMILES)	pKa [1]	slope of osmolality versus gelling agent concentration [2]	damage on endothelial-derived cells [3]
–	–	O.O.O.O.O.O=P([O-])([O-])OC(CO)CO.[Na+].[Na+] [BGP, β-Glycerol phosphate disodium salt pentahydrate, reference compound]	6.65	1789	–
–	–	O=C([O-])O.[Na+] [SHC, Sodium hydrogen carbonate]	6.35	1475	no damage
drug denaturation	avoid drug denaturation	C[C@H]1c2cccc(O)c2C(=O)C2=C(O)[C@]3(O)C(=O)C(C(N)=O)=C(O)[C@@H](N(C)C)[C@@H]3[C@@H](O)[C@@H]21 [doxycycline]	–	–	–
